From US11457625B1, “Tuning a broad acting antimicrobial textile to act as a narrow spectrum antimicrobial textile” (priority 2018, dated 2022) come the findings set out here.

No end group written: not given here.

One assay has as its system S. epidermidis 12228. Briefly: Testing swatches for binding and antimicrobial activity. It counts as cell-based, Staphylococcus epidermidis. The settings on record: for colonies counted (cells recovered from swatch), S. epidermidis: Cj peptide attached to swatches. The protocol: (§1) Peptides were synthesized at New England peptides with the linker sequence of GGSGGS or GGSGG on the N terminal (Table 1). Textile swatches of cotton or cotton-nylon blends were cut to 1 cm circles and the surface hydroxyls were converted to carboxyl by submerging the swatches 1 hour with agitation at 300 rpm in 25 mL of citric acid buffer (7% citric acid, 5% Sodium Hypophosphate monohydrate). (Synthetic material such as nylon and polyester require a pretreatment with sodium hydroxide before the citric acid buffer is added) To cure the reaction, the swatches were heated in a microwave for 2 minutes. After curing, swatches were washed the in 25 mL of deionized water for 5 min. The swatches were activated by submerging in 30 mL of EDC solution (0.6372 g in 30 mL 200 mM monobasic sodium phosphate buffer pH) and incubating for 45 minutes with 300 rpm agitation. After incubation, swatches were rinsed in 25 mL 20 mM sodium phosphate buffer pH 7.2 for 5 minutes. During the wash, 5 ml peptide samples were prepare from a 2 mg/ml stock of peptide in 20 mM sodium phosphate solution at concentrations of […] 1.25 mg/g peptide. […] Each solution was added to one well of a six well microtiter plate. […] Swatches were washed in 20 mM phosphate buffer for 5 min, then wash for 5 min in water twice and allowed to air dry.
(§2) Inoculation took place using an 8 ml overnight cultures for each target microorganisms in appropriate media. For Staphylococcus aureus, Staphylococcus epidermidis and Pseudomonas aeruginosa cultures were grown on Nutrient broth. For Corynebacterium jeikieson the media was Brain Heart Infusion supplemented with 0.1% Tween 80 and for Micrococcus luteus the media was Brain Heart Infusion media. The OD for each culture was taken and diluted to an OD of 1 using appropriate growth media. For each culture a 1 mL aliquot was taken and transfer to a clean 2 mL eppendorf tube. The tubes were placed into a micro centrifuge and spun at 10,000 G until a pellet has formed. The media was aspirated without disturbing the pellet and the pellet was re-suspend in 1 mL of 0.125× Nutrient Broth with 0.15% Triton X-100. This was repeated to wash pellets. The pellet was re-suspend in 1 ml of 0.125× Nutrient Broth with 0.15% Triton X-100 and the above centrifugation was performed again. After last wash, the pellet was re-suspended in 1 ml of 0.125× Nutrient Broth with 0.15% Triton X-100 then added to 8 mL of 0.125× Nutrient Broth with 0.15% Triton X-100. […] The inoculum was enumerated by adding 500 ul into 4.5 ml of PBS and serial diluting 7 more times. Counts were taken by spread plating only 10^−6, 10^−7 and 10^−8.
(§3) Swatches prepared previously were inoculated with 25 ul of the inoculum (scoured samples will be used as a negative control). The inoculated swatches were incubated for 24 hr at 37° C. in a sealed tube. To analyze binding, the swatches were placed into 2.5 ml modified DE broth and vortex for 5 min. The modified DE broth was serial diluted 10^−3 by adding 500 ul to 4.5 ml phosphate buffer. The dilution was spread plated onto the appropriate growth media (mannitol salts for Staphylococcus aureus, nutrient agar for Staphylococcus epidermidis, Cetrimide agar for Pseudomonas aeruginosa, Brain heart infusion for Micrococcus luteus and Brain Heart infusion with 0.1% Tween 80 for Corynebacterium jeikeium) and incubate overnight.
(§4) An experiment was run using the same two Staphylococcus aureus strains 27217 and 25923 with the addition of Staphylococcus epidermidis. […]
(§5) The six potential peptides were attached to swatches and exposed to Corynebacterium jeikeium, Micrococcus luteus, Staphylococcus epidermidis, Staphylococcus aureus and Pseudomonas aeruginosa.

The test system of another assay is Pseudomonas aeruginosa. The description is as above. The settings on record: for colonies counted (cells recovered from swatch), P. aeruginosa: Cj peptide attached to swatches. It counts as cell-based. The protocol:
as §1, §2, §3
Pseudomonas aeruginosa was examined using concentrations based upon the textile MIC.
as §5

For a further assay, the system named is Staphylococcus aureus. Briefly: Testing swatches for binding and antimicrobial activity (strain not distinguished). Type of assay: cell-based. The settings on record: for colonies counted (cells recovered from swatch), S. aureus: Cj peptide attached to swatches. On the procedure: as §1, §2, §3
These concentration were chosen based upon result from previously described experiments. The treated fabric was evaluated against two different strains of Staphylococcus aureus (Table 5). […] A follow up experiment provide additional evidence for this possibility.
as §4

The next assay deals with Corynebacterium jeikeium. The experiment in a line: Testing swatches for binding and antimicrobial activity. Type of assay: cell-based. The settings on record: peptide attached to swatches. The protocol:
as §1, §2, §3, §5

A further assay concerns Micrococcus luteus. The description is as above. Type of assay: cell-based. The settings on record: peptide attached to swatches. On the procedure:
as §1, §2, §3, §5

The next assay has as its system S aureus 27217. The assay is described as above. The settings on record: PHMB 0%, 24 hr 37° C. Type of assay: cell-based, Staphylococcus aureus. The protocol: as §1
as §2, with “Counts were taken by spread plating only 10^−6, 10^−7 and 10^−8.” left out
(§6) These concentration were chosen based upon result from previously described experiments. The treated fabric was evaluated against two different strains of Staphylococcus aureus (Table 5). […]

The subject of another assay is S. aureus 25923. The description is as above. The settings on record: PHMB 0%, 24 hr 37° C. Type of assay: cell-based, Staphylococcus aureus. On the procedure: as §1
as §2, with “Counts were taken by spread plating only 10^−6, 10^−7 and 10^−8.” left out
as §6

As to “GGSGGGWWNSWGKCV (MICROCOCCUS LUTEUS and CORYNEBACTERIUM JEIKIEUM) [Cj 5]”, the “colonies counted (cells recovered from swatch), S. epidermidis” value (from here on “colonies counted … S. epidermidis”) in the assay on S. epidermidis 12228 was 337000. For the same sequence, in the assay with Pseudomonas aeruginosa, the “colonies counted (cells recovered from swatch), P. aeruginosa” value (“colonies counted … P. aeruginosa” below) was “TNTC”. Moreover, in the assay on Staphylococcus aureus, the “colonies counted (cells recovered from swatch), S. aureus” value (from here on “colonies counted … S. aureus”) was determined as 4195000. The “colonies counted (cells recovered from swatch), C. Jeikeium” value (shortened to “colonies counted … C. Jeikeium”) in the assay with Corynebacterium jeikeium was found to be 0. Further, in the assay on Micrococcus luteus, the “colonies counted (cells recovered from swatch), M luteus” value (from here on “colonies counted … M luteus”) is 0.
For “GGSGGIGGVSGGLTG (MICROCOCCUS LUTEUS and CORYNEBACTERIUM JEIKIEUM) [Cj 6]”, in the assay on S. epidermidis 12228, the “colonies counted … S. epidermidis” value is reported as 122000. The “colonies counted … P. aeruginosa” value in the assay with Pseudomonas aeruginosa amounted to 175000. Besides, in the assay with Staphylococcus aureus, the “colonies counted … S. aureus” value is 5980000. In the assay on Corynebacterium jeikeium, the “colonies counted … C. Jeikeium” value is given as 0. Also, the “colonies counted … M luteus” value in the assay with Micrococcus luteus stood at 0.
“GGSGGNGVVLTL (MICROCOCCUS LUTEUS and CORYNEBACTERIUM JEIKIEUM) [Cj 1]”: in the assay with S. epidermidis 12228, the “colonies counted … S. epidermidis” value worked out at 65500. For the same sequence, the “colonies counted … P. aeruginosa” value in the assay on Pseudomonas aeruginosa is on record as 40000. The “colonies counted … S. aureus” value with Staphylococcus aureus was 6055000. Further, the “colonies counted … C. Jeikeium” value with Corynebacterium jeikeium was determined as 175. Besides, the “colonies counted … M luteus” value in the assay on Micrococcus luteus was 0.
On the same counts, the results for “GGSGGNRWWQGVVP (MICROCOCCUS LUTEUS and CORYNEBACTERIUM JEIKIEUM) [Cj3]” are 121500, 27000, 7040000, 300 and 0.
Sequence “GGSGGSKKHRKHRKHRKH (also: bound to textile) [pep]” yielded a CFU in the assay on Pseudomonas aeruginosa (2.5 mg/ml pep, 0% PHMB) of 0 CFU.
For the sequence “GGSGGSWQHVFT (MICROCOCCUS LUTEUS and CORYNEBACTERIUM JEIKIEUM) [Cj 4]”, the “colonies counted … S. epidermidis” value in the assay on S. epidermidis 12228 is 145000. Further, the “colonies counted … P. aeruginosa” value with Pseudomonas aeruginosa is recorded as 28000. Further, the “colonies counted … S. aureus” value in the assay on Staphylococcus aureus is 5315000. The “colonies counted … C. Jeikeium” value in the assay with Corynebacterium jeikeium stood at 245. The “colonies counted … M luteus” value in the assay on Micrococcus luteus was determined as 0.
As to “GGSGGSYSTCDFIM (STAPHYLOCOCCUS AUREUS) [Peptide]”, the “binding by the peptide (in words)” value in the assay on S. epidermidis 12228 (S. aureus-binding peptide 2.5 mg/ml) was “does not appear to be any binding”. The “colonies counted (cells recovered from swatch)” value was found to be 693000 in the assay with S. epidermidis 12228 (S. aureus-binding peptide 2.5 mg/ml, PHMB 0%); 475000 with S aureus 27217 (peptide 1.75 mg/g); 0 with S aureus 27217 (peptide 2.5 mg/ml); 4765000 in the assay on S. aureus 25923 (peptide 1.75 mg/g); 0 with S. aureus 25923 (peptide 2.5 mg/ml). The “lowest peptide concentration that will bind the cells” value in the assay on Staphylococcus aureus (both strains) was found to be 2.5 mg/mL. For the same sequence, the “binding of cells (in words)” value is recorded as “completely bound all of the cells” in the assay with Staphylococcus aureus (both strains, peptide 2.5 mg/ml regardless of the PHMB concentration) and “may have bound some of the cells, but not all of them” in the assay with Staphylococcus aureus (lower peptide concentrations (below 2.5 mg/ml)). The “cells recovered (in words)” value in the assay with Staphylococcus aureus (strains 27217 and 25923, peptide present (2.5 mg/ml), PHMB 0 or 0.0008%) is listed as “no Staphylococcus aureus cell were recovered”.
Regarding “GGSGGTWTKKLK (MICROCOCCUS LUTEUS and CORYNEBACTERIUM JEIKIEUM) [Cj2]”, the “colonies counted … S. epidermidis” value in the assay with S. epidermidis 12228 was determined as 294000. For the same sequence, in the assay on Pseudomonas aeruginosa, the “colonies counted … P. aeruginosa” value is recorded as “TNTC”. For the same sequence, the “colonies counted … S. aureus” value in the assay with Staphylococcus aureus worked out at 7680000. Also, in the assay with Corynebacterium jeikeium, the “colonies counted … C. Jeikeium” value worked out at 0. Also, the “colonies counted … M luteus” value in the assay on Micrococcus luteus stood at 0.
